From patent publication US9090600B2, “Fungicidal 4-substituted-3-{phenyl[(heterocyclylmethoxy)imino]methyl}-1,2,4-oxadizol-5(4H)-one derivatives” (BAYER INTELLECTUAL PROPERTY GMBH, priority 2011, dated 2015)
Marks after values point to notes of the source that are not given here.

Legend:
Phytophthora infestans = format: in vivo; conditions: tomato plants, spray, 500 ppm, grading 5 days after contamination
Plasmopara viticola = assay: Plasmopara test (grapevines)/preventive; format: in vivo; conditions: preventive spray, 10 ppm of active ingredient, evaluated 6 days after inoculation
Procedure: Solvent: 24.5 parts by weight of acetone • 24.5 parts by weight of dimethylacetamide
Emulsifier: 1 part by weight of alkylaryl polyglycol ether
To produce a suitable preparation of active compound, 1 part by weight of active compound is mixed with the stated amounts of solvent and emulsifier, and the concentrate is diluted with water to the desired concentration.
To test for preventive activity, young plants are sprayed with the preparation of active compound at the stated rate of application. After the spray coating has dried on, the plants are inoculated with an aqueous spore suspension of Plasmopara viticola and then remain for 1 day in an incubation cabinet at approximately 20° C. and a relative atmospheric humidity of 100%. The plant is subsequently placed for 4 days in a greenhouse at approximately 21° C. and a relative atmospheric humidity of approximately 90%. The plants are then misted and placed for 1 day in an incubation cabinet.
The test is evaluated 6 days after the inoculation. 0% means an efficacy which corresponds to that of the untreated control, while an efficacy of 100% means that no disease is observed.

[1] = pH 2.7

Row | SMILES | Eff. % (Phytophthora infestans) [%] | Eff. % (Plasmopara viticola) [%] | LogP [1]
1 | COc1cccc(OC(C)C(=O)Nc2nc(CO/N=C(/c3ccccc3)c3noc(=O)n3C)cs2)c1 (stereo not drawn) [Example 50] | 94 | 95 | 3.71 [a]
2 | COc1cccc(OCC(=O)Nc2cccc(CO/N=C(/c3ccccc3)c3noc(=O)n3C)n2)c1 [Example 51] | – | 91 | 3.73 [a]
3 | Cn1c(/C(=N\OCc2cccc(NC(=O)c3ccccc3)n2)c2ccccc2)noc1=O [Example 54] | 100 | 93 | 3.51 [a]
4 | Cn1c(/C(=N\OCc2cccc(NC(=O)CCC(C)(C)C)n2)c2ccccc2)noc1=O [Example 59] | 100 | 98 | 4.15 [a]
5 | CC(OC(=O)Nc1cccc(CO/N=C(/c2ccccc2)c2noc(=O)n2C)n1)c1ccccc1 (stereo not drawn) [Example 68] | 100 | 90 | 4.23 [a]
6 | Cc1cccc(OC(C)C(=O)Nc2nc(CO/N=C(/c3ccccc3)c3noc(=O)n3C)cs2)c1 (stereo not drawn) [Example 80] | 98 | 98 | 3.99 [a]
7 | Cn1c(/C(=N\OCc2cccc(NC(=O)C3Cc4ccccc4CO3)n2)c2ccccc2)noc1=O (stereo not drawn) [Example 85] | 99 | 73 | 4.17 [a]
8 | Cn1c(/C(=N\OCc2csc(NC(=O)COc3cccc(F)c3)n2)c2ccccc2)noc1=O [Example 100] | – | 74 | 3.58 [a]
9 | CC(C)CCC(=O)Nc1cccc(CO/N=C(/c2ccccc2)c2noc(=O)n2C)n1 [Example 102] | 100 | 91 | 3.85 [a]
10 | Cn1c(C(=NOCc2cccc(NCC3CCCCC3)n2)c2ccccc2)noc1=O [Example 116] | – | 93 | 3.02 [a]
11 | CCn1c(/C(=N\OCc2cccc(NC(=O)OC(C)(C)C)n2)c2ccccc2)noc1=O [Example 152] | 95 | 70 | 4.26 [a]
12 | Cn1c(/C(=N\OCc2cccc(NC(=O)CCC3(C)CC3)n2)c2ccccc2)noc1=O [Example 166] | 99 | 95 | 3.87 [a]
13 | Cn1c(/C(=N\OCc2csc(NC(=O)COC3CCCC3)n2)c2ccccc2)noc1=O [Example 195] | – | 95 | 3.73 [a]
14 | Cn1c(/C(=N\OCc2cccc(NC(=O)CC3CCCCC3)n2)c2ccccc2)noc1=O [Example 208] | 100 | 91 | 4.26 [a]
15 | CCCCOCC(=O)Nc1cccc(CO/N=C(/c2ccccc2)c2noc(=O)n2C)n1 [Example 240] | 100 | 80 | 3.97 [a]
16 | CCCCC(C)C(=O)Nc1cccc(CON=C(c2ccccc2)c2noc(=O)n2C)n1 (stereo not drawn) [Example 244] | 99 | 86 | 4.2 [a]
17 | Cn1c(C(=NOCc2cccc(NC(=O)c3ccc(Cl)cc3)n2)c2ccccc2)noc1=O [Example 245] | – | 93 | 4.01 [a]
18 | Cn1c(/C(=N\OCc2cccc(NC(=O)c3cccc(I)c3)n2)c2ccccc2)noc1=O [Example 281] | 97 | 97 | 4.31 [a]
19 | CCCCC(CC)C(=O)Nc1cccc(CO/N=C(/c2ccccc2)c2noc(=O)n2C)n1 (stereo not drawn) [Example 284] | 95 | 79 | 4.49 [a]
20 | CC1c2ccccc2COC1C(=O)Nc1cccc(CO/N=C(/c2ccccc2)c2noc(=O)n2C)n1 (stereo not drawn) [Example 291] | 100 | 77 | 4.35 [a]
21 | Cc1ccc(OCC(=O)Nc2cccc(CO/N=C(/c3ccccc3)c3noc(=O)n3C)n2)cc1 [Example 296] | – | 74 | 4.07 [a]
22 | C#CCCCC(=O)Nc1cccc(CO/N=C(/c2ccccc2)c2noc(=O)n2C)n1 [Example 302] | 100 | 92 | 3.17 [a]
23 | Cn1c(/C(=N\OCc2cccc(NC(=O)C(F)(F)Oc3ccccc3)n2)c2ccccc2)noc1=O [Example 307] | – | 98 | 4.08 [a]
24 | Cc1ccc(OC(C)C(=O)Nc2nc(CO/N=C(/c3ccccc3)c3noc(=O)n3C)cs2)cc1 (stereo not drawn) [Example 312] | 94 | 95 | 4.02 [a]
25 | CCCCC(C)(C)C(=O)Nc1cccc(CO/N=C(/c2ccccc2)c2noc(=O)n2C)n1 [Example 316] | – | 84 | 4.63 [a]
26 | COc1cccc(OCC(=O)Nc2nc(CO/N=C(/c3ccccc3)c3noc(=O)n3C)cs2)c1 [Example 318] | 99 | 93 | 3.53 [a]

Row | SMILES | Eff. % (Phytophthora infestans) [%] | Eff. % (Plasmopara viticola) [%] | LogP [1]
27 | CC(Oc1cccc(Cl)c1)C(=O)Nc1nc(CO/N=C(/c2ccccc2)c2noc(=O)n2C)cs1 (stereo not drawn) [Example 321] | 97 | 82 | 4.1 [a]
28 | Cc1ccc(C)c(C(=O)Nc2cccc(CO/N=C(/c3ccccc3)c3noc(=O)n3C)n2)c1 [Example 327] | 100 | 95 | 4.06 [a]
29 | Cc1ccc(C)c(C(=O)Nc2nc(CO/N=C(/c3ccccc3)c3noc(=O)n3C)cs2)c1 [Example 336] | 99 | 91 | 3.94 [a]
30 | CC(C)CC(=O)Nc1cccc(CO/N=C(/c2ccccc2)c2noc(=O)n2C)n1 [Example 340] | 100 | 79 | 3.44 [a]
31 | C#CCCOC(=O)Nc1cccc(CO/N=C(/c2cccc(C)c2)c2noc(=O)n2C)n1 [Example 343] | 100 | 95 | 3.59 [a]
32 | Cc1cccc(C(=O)Nc2cccc(CO/N=C(/c3ccccc3)c3noc(=O)n3C)n2)c1 [Example 344] | 100 | 93 | 3.87 [a]
33 | Cn1c(/C(=N\OCc2cccc(NC(=O)c3ccc(Cl)c(Cl)c3)n2)c2ccccc2)noc1=O [Example 352] | 100 | 79 | 4.54 [a]
34 | CCCCCC(=O)Nc1cccc(CO/N=C(/c2cccc(C)c2)c2noc(=O)n2C)n1 [Example 355] | 100 | 75 | 4.24 [a]
35 | Cn1c(/C(=N\OCc2cccc(NC(=O)CC3CCCC3)n2)c2ccccc2)noc1=O [Example 365] | 100 | 98 | 3.92 [a]
36 | Cn1c(/C(=N\OCc2cccc(NC(=O)CCCCCBr)n2)c2ccccc2)noc1=O [Example 374] | 100 | – | 3.85 [a]
37 | Cc1ccc(CC(=O)Nc2cccc(CO/N=C(/c3ccccc3)c3noc(=O)n3C)n2)cc1 [Example 375] | 97 | – | 3.85 [a]
38 | CCCCCC(=O)Nc1cccc(CO/N=C(/c2cccc(F)c2)c2noc(=O)n2C)n1 [Example 376] | 100 | 93 | 3.99 [a]
39 | Cn1c(/C(=N\OCc2cccc(NC(=O)CCCc3ccccc3)n2)c2ccccc2)noc1=O [Example 377] | 99 | – | 4.04 [a]
40 | Cn1c(/C(=N\OCc2csc(NC(=O)Cc3ccccc3)n2)c2ccccc2)noc1=O [Example 378] | 100 | 95 | 3.37 [a]
41 | Cn1c(/C(=N\OCc2cccc(NC(=O)c3cccc(Br)c3)n2)c2ccccc2)noc1=O [Example 380] | 93 | 95 | 4.16 [a]
42 | Cn1c(/C(=N\OCc2cccc(NC(=O)Cc3ccc4ccccc4c3)n2)c2ccccc2)noc1=O [Example 381] | 75 | – | 4.12 [a]
43 | Cc1cccc(/C(=N/OCc2cccc(NC(=O)C(C)(C)C)n2)c2noc(=O)n2C)c1 [Example 387] | 100 | – | 3.85 [a]
44 | Cn1c(/C(=N\OCc2cccc(NC(=O)C3CCCC3)n2)c2ccccc2)noc1=O [Example 388] | 100 | – | 3.62 [a]
45 | Cn1c(/C(=N\OCc2cccc(NC(=O)CCC3CCC3)n2)c2ccccc2)noc1=O [Example 389] | 99 | 100 | 4.02 [a]
46 | C=CCCOC(=O)Nc1nc(CO/N=C(/c2ccccc2)c2noc(=O)n2C)cs1 [Example 394] | 90 | – | 3.44 [a]
47 | COc1ccc(C(=NOCc2cccc(NC(=O)OC(C)(C)C)n2)c2noc(=O)n2C)cc1 [Example 396] | 73 | – | 3.96 [a]
48 | Cc1ccc(C(=O)Nc2cccc(CO/N=C(/c3ccccc3)c3noc(=O)n3C)n2)cc1C [Example 401] | 99 | 90 | 4.16 [a]
49 | CCn1c(/C(=N\OCc2cccc(NC(=O)CCc3ccccc3)n2)c2ccccc2)noc1=O [Example 403] | 100 | – | 4.01 [a]
50 | Cn1c(/C(=N\OCc2cccc(NC(=O)CCCCCl)n2)c2ccccc2)noc1=O [Example 404] | 98 | 87 | 3.44 [a]
51 | COc1cccc(C(=NOCc2cccc(NC(=O)C(C)(C)C)n2)c2noc(=O)n2C)c1 [Example 407] | 95 | – | 3.55 [a]
